Source: patent publication US9884832B2 (priority 2011, dated 2018)

target: AM2 S31N (serine→asparagine mutation at residue 31 in the M2 protein) (Influenza A virus, UniProt P0DOF5, S31N); assay type: cell-based, influenza virus A/Udorn/72; settings: not given

Compound | S31N OOcyte Inhibition at 100 uM (%)
Cc1ncc(CN(Cc2cnc(C)s2)C23CC4CC(CC(C4)C2)C3)s1 [Example 202a, N,N-bis((2-methylthiazol-5-yl)methyl)adamantan-1-amine] | B (key: (A)=31-95%; (B)=0-30%)
COc1ccc2nc(CN(Cc3nc4ccc(OC)cc4[nH]3)C34CC5CC(CC(C5)C3)C4)[nH]c2c1 [Example 201a, Adamantan-1-yl-bis-(6-methoxy-1H-benzoimidazol-2-ylmethyl)-amine] | B (key: (A)=31-95%; (B)=0-30%)
Ic1ccc(CNC23CC4CC(CC(C4)C2)C3)s1 [Example 91a, N-((5-Iodothiophen-2-yl)methyl)adamantan-1-amine] | A (key: (A)=31-95%; (B)=0-30%)
OC12CC3CC(C1)CC(NCc1cc4sccc4s1)(C3)C2 [Example 192a, 3-[(Thieno[3,2-b]thiophen-2-ylmethyl)-amino]-adamantan-1-ol] | A (key: (A)=31-95%; (B)=0-30%)
c1cc2cn[nH]c2cc1CNC12CC3CC(CC(C3)C1)C2 [Example 43a, N-((1H-indazol-6-yl)methyl)adamantan-1-amine] | B (key: (A)=31-95%; (B)=0-30%)
c1ccc(C2=NOC(CNC34CC5CC(CC(C5)C3)C4)C2)cc1 (stereo not drawn) [Example 167a, N-((3-phenyl-4,5-dihydroisoxazol-5-yl)methyl)adamantan-1-amine] | A (key: (A)=31-95%; (B)=0-30%)
CC(C)c1nc(CNC23CC4CC(CC(C4)C2)C3)no1 [Example 102a, N-((5-isopropyl-1,2,4-oxadiazol-3-yl)methyl)adamantan-1-amine] | A (key: (A)=31-95%; (B)=0-30%)
Cc1oc(-c2cccs2)nc1CNC12CC3CC(CC(C3)C1)C2 [Example 145a, N-((5-methyl-2-(thiophen-2-yl)oxazol-4-yl)methyl)adamantan-1-amine] | B (key: (A)=31-95%; (B)=0-30%)
Cc1nc(CNC23CC4CC(CC(C4)C2)C3)no1 [Example 96a, N-((5-methyl-1,2,4-oxadiazol-3-yl)methyl)adamantan-1-amine] | A (key: (A)=31-95%; (B)=0-30%)
COC(=O)c1ccc(-c2ccc(CNC34CC5CC(CC(O)(C5)C3)C4)cc2)cc1 [Example 190a, 4′-[(3-Hydroxy-adamantan-1-ylamino)-methyl]-biphenyl-4-carboxylic acid methyl ester] | A (key: (A)=31-95%; (B)=0-30%)
c1csc(-c2ccc(CNC34CC5CC(CC(C5)C3)C4)o2)c1 [Example 138a, Adamantan-1-yl-(5-thiophen-2-yl-furan-2-ylmethyl)-amine] | A (key: (A)=31-95%; (B)=0-30%)
CSc1ccc(CNC23CC4CC(CC(C4)C2)C3)s1 [Example 90a] | A (key: (A)=31-95%; (B)=0-30%)
c1c(CNC23CC4CC(CC(C4)C2)C3)noc1C1CC1 [Example 107a, N-((5-cyclopropylisoxazol-3-yl)methyl)adamantan-1-amine] | A (key: (A)=31-95%; (B)=0-30%)

same assay, conditions: pH 5.5

Compound | S31N OOcyte Inhibition at 100 uM (%)
CCCSc1ncc(CNC23CC4CC(CC(C4)C2)C3)cn1 [Example 62b, N-((2-propylthiopyrimidin-5-yl)methyl)adamantan-1-amine] | A (key: (A)=31-95%; (B)=0-30%)
Cc1noc(C)c1-c1nc(CNC23CC4CC(CC(C4)C2)C3)no1 [Example 25b, N-((5-(3,5-dimethylisoxazol-4-yl)-1,2,4-oxadiazol-3-yl)methyl)adamantan-1-amine] | B (key: (A)=31-95%; (B)=0-30%)
COc1ccc(-c2nc(CNC34CC5CC(CC(C5)C3)C4)no2)c(OC)c1 [Example 34b, N-((5-(2,4-dimethoxyphenyl)-1,2,4-oxadiazol-3-yl)methyl)adamantan-1-amine] | A (key: (A)=31-95%; (B)=0-30%)
CCCc1nc(CNC23CC4CC(CC(C4)C2)C3)no1 [Example 29b, N-((5-propyl-1,2,4-oxadiazol-3-yl)methyl)adamantan-1-amine] | A (key: (A)=31-95%; (B)=0-30%)
CC(C)(C)c1ccc(-c2ccc(CNC34CC5CC(CC(C5)C3)C4)s2)cc1 [Example 50b, N-((5-(4-(tert-Butyl)phenyl)thiophen-2-yl)methyl)adamantan-1-amine] | A (key: (A)=31-95%; (B)=0-30%)
CN(C)c1ncc(CNC23CC4CC(CC(C4)C2)C3)cn1 [Example 59b, N-((2-dimethylaminopyrimidin-5-yl)methyl)adamantan-1-amine] | A (key: (A)=31-95%; (B)=0-30%)
COc1ncc(CNC23CC4CC(CC(C4)C2)C3)cn1 [Example 55b, N-((2-methoxypyrimidin-5-yl)methyl)adamantan-1-amine] | A (key: (A)=31-95%; (B)=0-30%)
CSc1ccc(-c2cc(CNC34CC5CC(CC(C5)C3)C4)no2)cc1 [Example 37b, N-((5-(4-(methylthio)phenyl)isoxazol-3-yl)methyl)adamantan-1-amine] | A (key: (A)=31-95%; (B)=0-30%)
O=C(CNC12CC3CC(CC(C3)C1)C2)c1cccs1 [Example 87b, 2-(adamantan-1-ylamino)-1-(thiophen-2-yl)ethanone] | B (key: (A)=31-95%; (B)=0-30%)
Oc1cc(F)ccc1CNC12CC3CC(CC(C3)C1)C2 [Example 6b] | A (key: (A)=31-95%; (B)=0-30%)
Oc1cc(Cl)ccc1CNC12CC3CC(CC(C3)C1)C2 [Example 9b, 2-((-Adamantan-1-ylamino)methyl)-5-chlorophenol] | A (key: (A)=31-95%; (B)=0-30%)
Clc1ccccc1-c1cc(CNC23CC4CC(CC(C4)C2)C3)no1 [Example 45b, N-((5-(2-chlorophenyl)isoxazol-3-yl)methyl)adamantan-1-amine] | A (key: (A)=31-95%; (B)=0-30%)
FC(F)(F)Oc1ccc(-c2cc(CNC34CC5CC(CC(C5)C3)C4)no2)cc1 [Example 36b, N-((5-(4-(trifluoromethoxy)phenyl)isoxazol-3-yl)methyl)adamantan-1-amine] | B (key: (A)=31-95%; (B)=0-30%)
CC(C)(C)c1ncc(CNC23CC4CC(CC(C4)C2)C3)s1 [Example 20b, N-((2-(tert-butyl)thiazol-5-yl)methyl)adamantan-1-amine] | A (key: (A)=31-95%; (B)=0-30%)
Clc1ccc(CNC23CC4CC(CC(C4)C2)C3)nn1 [Example 70b, Adamantan-1-yl-(6-chloro-pyridazin-3-ylmethyl)-amine] | B (key: (A)=31-95%; (B)=0-30%)
Cc1nc(CNC23CC4CC(CC(C4)C2)C3)cs1 [Example 12b, N-((2-methylthiazol-4-yl)methyl)adamantan-1-amine] | A (key: (A)=31-95%; (B)=0-30%)
COc1ccc(Cc2nc(CNC34CC5CC(CC(C5)C3)C4)no2)cc1OC [Example 28b, N-((5-(3,4-dimethoxybenzyl)-1,2,4-oxadiazol-3-yl)methyl)adamantan-1-amine] | A (key: (A)=31-95%; (B)=0-30%)
